Key:
medaka Esr1 (mEsr1) [1] = target: T1, medaka Esr1 (mEsr1) (Oryzias latipes, UniProt P50241); assay: cell-based; parameters: species or system Japanese medaka (Oryzias latipes)
T1 sequence (P50241 1-620): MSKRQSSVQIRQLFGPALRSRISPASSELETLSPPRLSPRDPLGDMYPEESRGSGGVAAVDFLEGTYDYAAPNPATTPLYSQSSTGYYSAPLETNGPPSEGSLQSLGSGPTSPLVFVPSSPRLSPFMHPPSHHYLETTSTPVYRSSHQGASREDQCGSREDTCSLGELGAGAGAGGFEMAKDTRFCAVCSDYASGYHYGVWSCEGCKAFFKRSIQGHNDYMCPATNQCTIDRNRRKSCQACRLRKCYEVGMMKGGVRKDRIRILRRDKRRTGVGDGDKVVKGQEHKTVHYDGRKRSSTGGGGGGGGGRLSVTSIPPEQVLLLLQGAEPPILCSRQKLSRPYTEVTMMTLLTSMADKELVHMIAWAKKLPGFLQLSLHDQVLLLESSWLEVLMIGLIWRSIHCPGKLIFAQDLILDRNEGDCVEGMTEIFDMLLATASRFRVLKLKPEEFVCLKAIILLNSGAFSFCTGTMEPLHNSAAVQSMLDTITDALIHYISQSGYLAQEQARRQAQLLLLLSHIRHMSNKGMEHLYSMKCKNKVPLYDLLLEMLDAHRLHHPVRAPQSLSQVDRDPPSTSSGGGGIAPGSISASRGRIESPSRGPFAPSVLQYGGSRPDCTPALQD

medaka Esr1 (mEsr1) [2] = target: T1, medaka Esr1 (mEsr1); assay: Medaka Esr1 reporter gene assay, antagonist assay; format: cell-based, Japanese medaka (Oryzias latipes); conditions: E2 spiked at 1.0 nM (B); MAC = 1.0 × 10^−4 M
medaka ARβ (mArβ) [3] = target: T2, medaka ARβ (mArβ) (Oryzias latipes, UniProt D1MV73); assay: Medaka ARβ reporter gene assay, agonist assay; format: cell-based, Japanese medaka (Oryzias latipes)
T2 sequence (D1MV73 1-744): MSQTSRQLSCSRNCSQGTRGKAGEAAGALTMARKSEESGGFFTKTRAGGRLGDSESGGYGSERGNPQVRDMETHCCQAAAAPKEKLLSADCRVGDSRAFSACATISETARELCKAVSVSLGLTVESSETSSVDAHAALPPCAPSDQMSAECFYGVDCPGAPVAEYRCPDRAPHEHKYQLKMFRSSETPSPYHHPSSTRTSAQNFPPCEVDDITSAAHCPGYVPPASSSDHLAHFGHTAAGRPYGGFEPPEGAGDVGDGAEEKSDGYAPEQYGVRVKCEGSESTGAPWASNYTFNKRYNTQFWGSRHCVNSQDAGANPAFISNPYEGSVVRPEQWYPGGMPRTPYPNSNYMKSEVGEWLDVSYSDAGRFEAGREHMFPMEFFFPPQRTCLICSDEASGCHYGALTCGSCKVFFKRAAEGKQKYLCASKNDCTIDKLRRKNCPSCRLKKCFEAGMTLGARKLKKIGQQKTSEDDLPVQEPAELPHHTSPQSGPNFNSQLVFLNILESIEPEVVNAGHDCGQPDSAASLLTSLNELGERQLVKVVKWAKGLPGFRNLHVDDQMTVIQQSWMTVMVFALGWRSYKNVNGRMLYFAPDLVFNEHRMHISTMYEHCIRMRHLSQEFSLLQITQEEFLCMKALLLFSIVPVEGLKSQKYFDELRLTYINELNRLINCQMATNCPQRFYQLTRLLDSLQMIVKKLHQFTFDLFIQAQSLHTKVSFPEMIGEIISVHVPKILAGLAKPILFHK

medaka ARβ (mArβ) [4] = target: T2, medaka ARβ (mArβ); assay: Medaka ARβ reporter gene assay, antagonist assay; format: cell-based, Japanese medaka (Oryzias latipes)
[5] = tested on: Japanese medaka (Oryzias latipes); assay: Fish Short‐Term Reproduction Assay; format: in vivo; conditions: for GSI Female / GSI Male / HSI Female / HSI Male / Length Female / Length Male / Weight Female / Weight Male: completion of exposure
[6] = measured concentration 0.0943 mg/L
[7] = measured concentration 0.939 mg/L
[8] = measured concentration 9.53 mg/L

O=C(c1ccc(O)cc1O)c1ccc(O)cc1O [BP2, Benzophenone‐2]
In vitro positive: Esr (medaka Esr1 (mEsr1) [1]; mode of action in which EC50 or PC10 was obtained in RGA): Esr
EC50 (medaka Esr1 (mEsr1) [1]; read-out: Agonistic activity EC50, HEK293 cells): 1.6 µM
Antagonistic activity (medaka Esr1 (mEsr1) [2]): NE (MAC = 1.0 × 10^−4 M)^(B)
Agonistic activity PC10 (medaka ARβ (mArβ) [3]; HepG2 cells, concentration with 10% of maximum activity of 11KT): PC10 = 1.2 × 10^−5 M
Agonistic activity on mArβ (in words) (medaka ARβ (mArβ) [3]; only PC10 and not EC50 could be estimated): positive agonistic activity
In vitro positive: aAr (medaka ARβ (mArβ) [4]; mode of action in which IC50 or IC30 was obtained in RGA): aAr
IC50 (medaka ARβ (mArβ) [4]; read-out: Antagonistic activity IC50, 11‐KT spiked at 50 nM (D)): 40 µM
Antagonistic activity on mArβ (in words) (medaka ARβ (mArβ) [4]; transcriptional activity on mArβ by 11KT): inhibitory potency
Fertility rate ([5]; 0.0943 mg/L measured, 21 d): 95 ± 2.3%
Hepatic VTG, female ([5]; 0.0943 mg/L measured, 21 d): 354 ± 105 ng/mg‐liver
Hepatic VTG, male ([5]; 0.0943 mg/L measured, 21 d): 0.5 ± 0.0 ng/mg‐liver
Mortality ([5]; 0.0943 mg/L measured, 21 d): 0.0%
Mortality, number of dead fish ([5]; 0.0943 mg/L measured, 21 d): 0
Number of fertilized eggs (per female per day) ([5]; 0.0943 mg/L measured, 21 d): 15 ± 2.2
Number of total eggs (per female per day) ([5]; 0.0943 mg/L measured, 21 d): 15 ± 2.3
SSC female (joint plates with papillary processes) ([5]; 0.0943 mg/L measured, 21 d): 0 ± 0
SSC male (joint plates with papillary processes) ([5]; 0.0943 mg/L measured, 21 d): 73 ± 7.0
Fertility rate ([5]; 0.939 mg/L measured, 21 d): 94 ± 2.5%
Hepatic VTG, female ([5]; 0.939 mg/L measured, 21 d): 398 ± 230 ng/mg‐liver
Hepatic VTG, male ([5]; 0.939 mg/L measured, 21 d): 0.9 ± 0.5 ng/mg‐liver
Mortality ([5]; 0.939 mg/L measured, 21 d): 4.2%
Mortality, number of dead fish ([5]; 0.939 mg/L measured, 21 d): 1
Number of fertilized eggs (per female per day) ([5]; 0.939 mg/L measured, 21 d): 14 ± 2.3
Number of total eggs (per female per day) ([5]; 0.939 mg/L measured, 21 d): 15 ± 2.7
SSC female (joint plates with papillary processes) ([5]; 0.939 mg/L measured, 21 d): 0 ± 0
SSC male (joint plates with papillary processes) ([5]; 0.939 mg/L measured, 21 d): 77 ± 20
Hepatic VTG, female ([5]; 9.53 mg/L measured, 21 d): 449 ± 114 ng/mg‐liver
Mortality ([5]; 9.53 mg/L measured, 21 d): 0.0%
Mortality, number of dead fish ([5]; 9.53 mg/L measured, 21 d): 0
Number of fertilized eggs (per female per day) ([5]; 9.53 mg/L measured, 21 d): 13 ± 1.7
Number of total eggs (per female per day) ([5]; 9.53 mg/L measured, 21 d): 14 ± 1.7
SSC female (joint plates with papillary processes) ([5]; 9.53 mg/L measured, 21 d): 0 ± 0
SSC male (joint plates with papillary processes) ([5]; 9.53 mg/L measured, 21 d): 79 ± 8.4
Hepatic VTG, male ([5]; 9.53 mg/L measured, 21 d, sig. ↑ vs control): 393 ± 306 ng/mg‐liver
Fertility rate ([5]; 9.53 mg/L measured, 21 d, sig. ↓ vs control): 90 ± 3.5%
LOEC, elevated hepatic VTG in males ([5]; 21 d): 9.53 mg/L
LOECmVTG ([5]; LOEC on VTG induction in males): 9,530 μg/L
LOECREPRO ([5]; LOEC on reproduction (fecundity and/or fertility)): 9,530 μg/L
LOECREPRO (reduction in fecundity or fertility) ([5]; concentrations without overt toxicity): 9,530 μg/L
LOECTOX ([5]; lowest observed effect concentration on mortality): ND (>9,530) μg/L
GSI Female [5, 6]: 6.9 ± 0.3%
GSI Male [5, 6]: 1.07 ± 0.14%
HSI Female [5, 6]: 2.8 ± 0.87%
HSI Male [5, 6]: 1.8 ± 0.37%
Length Female [5, 6]: 30.2 ± 0.4 mm
Length Male [5, 6]: 30.8 ± 1.2 mm
Weight Female [5, 6]: 296 ± 16 mg
Weight Male [5, 6]: 291 ± 27 mg
GSI Female [5, 7]: 7.6 ± 1.2%
GSI Male [5, 7]: 0.69 ± 0.15%
HSI Female [5, 7]: 3.1 ± 0.68%
HSI Male [5, 7]: 1.9 ± 0.24%
Length Female [5, 7]: 30.3 ± 1.0 mm
Length Male [5, 7]: 30.6 ± 1.1 mm
Weight Female [5, 7]: 304 ± 48 mg
Weight Male [5, 7]: 290 ± 32 mg
GSI Female [5, 8]: 8.6 ± 0.4%
GSI Male [5, 8]: 0.79 ± 0.23%
HSI Female [5, 8]: 3.5 ± 0.58%
HSI Male [5, 8]: 2.0 ± 0.55%
Length Female [5, 8]: 30.4 ± 0.5 mm
Length Male [5, 8]: 31.9 ± 1.1 mm
Weight Female [5, 8]: 295 ± 8.0 mg
Weight Male [5, 8]: 327 ± 34 mg

Reference: PMC9297976 (Journal of Applied Toxicology, 2021)
